These results are taken from article PMC9085577, “Discovery of a Potent and Orally Active Dual GPBAR1/CysLT1R Modulator for the Treatment of Metabolic Fatty Liver Disease” (Frontiers in Pharmacology, 2022).

The assay addresses T1, human GPBAR1 (Homo sapiens, UniProt Q8TDU6).
T1 construct: expressed in transfected cells; host or cells: HEK-293T cells, transient transfection (Fugene HD)
T1 sequence (Q8TDU6 1-330): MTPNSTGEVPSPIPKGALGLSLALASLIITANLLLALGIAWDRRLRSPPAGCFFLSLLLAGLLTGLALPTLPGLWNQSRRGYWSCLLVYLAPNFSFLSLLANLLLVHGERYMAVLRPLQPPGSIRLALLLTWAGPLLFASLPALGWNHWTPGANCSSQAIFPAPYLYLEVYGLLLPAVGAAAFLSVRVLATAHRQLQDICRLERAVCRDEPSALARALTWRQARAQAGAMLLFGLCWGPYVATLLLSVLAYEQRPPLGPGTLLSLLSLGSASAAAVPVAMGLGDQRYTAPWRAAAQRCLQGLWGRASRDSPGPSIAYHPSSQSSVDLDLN
As to the kind of experiment: GPBAR1 CRE-luciferase reporter transactivation assay in HEK-293T cells. It counts as cell-based. As to conditions: HEK293T cells. How it is done:
GPBAR1. […] At 18 h post stimulations, cellular lysates were assayed for luciferase and Renilla activities using the Dual-Luciferase Reporter assay system (E1980, Promega Madison WI). Luminescence was measured using Glomax 20/20 luminometer (Promega, Madison WI). Luciferase activities were normalized with Renilla activities.
Agonistic activities of compounds on GPBAR1 were compared to TLCA, which was set as 100%.
(In general: Reporter assays use an easily measured gene product as a stand-in for the process of interest.)

Usually EC50 stands for the concentration giving half of the maximal effect. Higher therefore signals lower potency in that assay.

In turn, `O=C(O)c1cccc(-c2ccc(OCc3ccc4ccccc4n3)cc2)c1` [Compound 2, 4'-(quinolin-2-ylmethoxy)-[1,1′-biphenyl]-3-carboxylic acid] yielded an EC50 (CRE luciferase) of 4.6 ± 1.5 µM. Also, the Emax (HEK-293T, compound 10 µM relative to TLCA (10 μM) as 100, CRE transactivation, read-out: GPBAR1 Eff (%) maximum efficacy) came out at 82 ± 1.2%.
